Reference: PubChem BioAssay AID1259407 (Chemical Carcinogenesis Research Information System (CCRIS), 2018)
Active and inactive are the calls of the source. No rule for the calls is given here.

System: CCRIS mutagenicity, Ames/micronucleus/aberration tests
Test: CCRIS mutagenicity studies
[1] = Test System: AMES SALMONELLA TYPHIMURIUM, Strain/Indicator: TA97, Metabolic Activation: NONE, Method: PREINCUBATION
[2] = Test System: AMES SALMONELLA TYPHIMURIUM, Strain/Indicator: TA102, Metabolic Activation: NONE, Method: PREINCUBATION
[3] = Test System: AMES SALMONELLA TYPHIMURIUM, Strain/Indicator: TA102, Metabolic Activation: RAT, LIVER, S-9, AROCLOR 1254, Method: PREINCUBATION
[4] = Test System: AMES SALMONELLA TYPHIMURIUM, Strain/Indicator: TA98, Metabolic Activation: NONE, Method: STANDARD PLATE
[5] = Test System: AMES SALMONELLA TYPHIMURIUM, Strain/Indicator: TA100, Metabolic Activation: NONE, Method: STANDARD PLATE
[6] = Test System: AMES SALMONELLA TYPHIMURIUM, Strain/Indicator: TA1535, Metabolic Activation: NONE, Method: STANDARD PLATE
[7] = Test System: AMES SALMONELLA TYPHIMURIUM, Strain/Indicator: TA1537, Metabolic Activation: NONE, Method: STANDARD PLATE

**Q.** `O=C(O)[C@H](O)[C@@H](O)[C@H](O)[C@H](O)CO` was tested. Which mutagenic call [1] did it give?
**A.** inactive; negative

**Q.** And the mutagenic call (Test System: AMES SALMONELLA TYPHIMURIUM, Strain/Indicator: TA97, Metabolic Activation: RAT, LIVER, S-9, AROCLOR 1254, Method: PREINCUBATION)?
**A.** inactive; negative

**Q.** What about the mutagenic call [2] of the same molecule?
**A.** inactive; negative

**Q.** What about the mutagenic call [3] of the same molecule?
**A.** inactive; negative

**Q.** With `Cc1cc2c3c(cccc3c1)-c1cc3ccccc3cc1-2` as the molecule, how does the mutagenic call (Test System: AMES SALMONELLA TYPHIMURIUM, Strain/Indicator: TA100, Metabolic Activation: RAT, LIVER, S-9, AROCLOR 1254) read?
**A.** active; positive

**Q.** For `Nc1snc2ccc(Cl)cc12`, which mutagenic call [4] is on record?
**A.** inactive; negative

**Q.** And the mutagenic call (Test System: AMES SALMONELLA TYPHIMURIUM, Strain/Indicator: TA98, Metabolic Activation: S-9, Method: STANDARD PLATE)?
**A.** active; positive

**Q.** And the mutagenic call [5]?
**A.** inactive; negative

**Q.** What about the mutagenic call (Test System: AMES SALMONELLA TYPHIMURIUM, Strain/Indicator: TA100, Metabolic Activation: S-9, Method: STANDARD PLATE) of the same molecule?
**A.** active; positive

**Q.** What about the mutagenic call [6] of the same molecule?
**A.** inactive; negative

**Q.** And the mutagenic call (Test System: AMES SALMONELLA TYPHIMURIUM, Strain/Indicator: TA1535, Metabolic Activation: S-9, Method: STANDARD PLATE)?
**A.** inactive; negative

**Q.** What about the mutagenic call [7] of the same molecule?
**A.** inactive; negative

**Q.** What about the mutagenic call (Test System: AMES SALMONELLA TYPHIMURIUM, Strain/Indicator: TA1537, Metabolic Activation: S-9, Method: STANDARD PLATE) of the same molecule?
**A.** active; positive

**Q.** How did the mutagenic call (Test System: AMES SALMONELLA TYPHIMURIUM, Strain/Indicator: TA97, Metabolic Activation: HAMSTER, LIVER, S-9, AROCLOR 1254 (10 OR 30%), Method: PREINCUBATION) turn out when `CCC(=O)O` was run?
**A.** inactive; negative

**Q.** What about the mutagenic call [1] of the same molecule?
**A.** inactive; negative

**Q.** What about the mutagenic call (Test System: AMES SALMONELLA TYPHIMURIUM, Strain/Indicator: TA97, Metabolic Activation: RAT, LIVER, S-9, AROCLOR 1254 (10 OR 30%), Method: PREINCUBATION) of the same molecule?
**A.** inactive; negative

**Q.** And the mutagenic call (Test System: AMES SALMONELLA TYPHIMURIUM, Strain/Indicator: TA97A, Metabolic Activation: NONE, Method: PREINCUBATION)?
**A.** inactive; negative

**Q.** What about the mutagenic call (Test System: AMES SALMONELLA TYPHIMURIUM, Strain/Indicator: TA97A, Metabolic Activation: RAT, LIVER, S-9, AROCLOR 1254, Method: PREINCUBATION) of the same molecule?
**A.** inactive; negative

**Q.** And the mutagenic call (Test System: AMES SALMONELLA TYPHIMURIUM, Strain/Indicator: TA98, Metabolic Activation: HAMSTER, LIVER, S-9, AROCLOR 1254 (10 OR 30%), Method: PREINCUBATION)?
**A.** inactive; negative

**Q.** And the mutagenic call (Test System: AMES SALMONELLA TYPHIMURIUM, Strain/Indicator: TA98, Metabolic Activation: NONE, Method: PREINCUBATION)?
**A.** inactive; negative

**Q.** And the mutagenic call (Test System: AMES SALMONELLA TYPHIMURIUM, Strain/Indicator: TA98, Metabolic Activation: RAT LIVER S-9, PHENOBARBITAL AND BETA-NAPHTHOFLAVONE, Method: PREINCUBATION)?
**A.** inactive; negative

**Q.** What about the mutagenic call (Test System: AMES SALMONELLA TYPHIMURIUM, Strain/Indicator: TA98, Metabolic Activation: RAT, LIVER, S-9, AROCLOR 1254 (10 OR 30%), Method: PREINCUBATION) of the same molecule?
**A.** inactive; negative

**Q.** What about the mutagenic call (Test System: AMES SALMONELLA TYPHIMURIUM, Strain/Indicator: TA100, Metabolic Activation: HAMSTER, LIVER, S-9, AROCLOR 1254 (10 OR 30%), Method: PREINCUBATION) of the same molecule?
**A.** inactive; negative

**Q.** And the mutagenic call (Test System: AMES SALMONELLA TYPHIMURIUM, Strain/Indicator: TA100, Metabolic Activation: NONE, Method: PREINCUBATION)?
**A.** inactive; negative

**Q.** What about the mutagenic call (Test System: AMES SALMONELLA TYPHIMURIUM, Strain/Indicator: TA100, Metabolic Activation: RAT LIVER S-9, PHENOBARBITAL AND BETA-NAPHTHOFLAVONE, Method: PREINCUBATION) of the same molecule?
**A.** inactive; negative

**Q.** What about the mutagenic call (Test System: AMES SALMONELLA TYPHIMURIUM, Strain/Indicator: TA100, Metabolic Activation: RAT, LIVER, S-9, AROCLOR 1254 (10 OR 30%), Method: PREINCUBATION) of the same molecule?
**A.** inactive; negative

**Q.** What about the mutagenic call [2] of the same molecule?
**A.** inactive; negative

**Q.** And the mutagenic call [3]?
**A.** inactive; negative

**Q.** What about the mutagenic call (Test System: AMES SALMONELLA TYPHIMURIUM, Strain/Indicator: TA1535, Metabolic Activation: HAMSTER, LIVER, S-9, AROCLOR 1254 (10 OR 30%), Method: PREINCUBATION) of the same molecule?
**A.** inactive; negative

**Q.** And the mutagenic call (Test System: AMES SALMONELLA TYPHIMURIUM, Strain/Indicator: TA1535, Metabolic Activation: NONE, Method: PREINCUBATION)?
**A.** inactive; negative

**Q.** What about the mutagenic call (Test System: AMES SALMONELLA TYPHIMURIUM, Strain/Indicator: TA1535, Metabolic Activation: RAT LIVER S-9, PHENOBARBITAL AND BETA-NAPHTHOFLAVONE, Method: PREINCUBATION) of the same molecule?
**A.** inactive; negative

**Q.** And the mutagenic call (Test System: AMES SALMONELLA TYPHIMURIUM, Strain/Indicator: TA1535, Metabolic Activation: RAT, LIVER, S-9, AROCLOR 1254 (10 OR 30%), Method: PREINCUBATION)?
**A.** inactive; negative

**Q.** What about the mutagenic call (Test System: AMES SALMONELLA TYPHIMURIUM, Strain/Indicator: TA1537, Metabolic Activation: HAMSTER, LIVER, S-9, AROCLOR 1254 (30%), Method: PREINCUBATION) of the same molecule?
**A.** inactive; negative

**Q.** And the mutagenic call (Test System: AMES SALMONELLA TYPHIMURIUM, Strain/Indicator: TA1537, Metabolic Activation: NONE, Method: PREINCUBATION)?
**A.** inactive; negative

**Q.** And the mutagenic call (Test System: AMES SALMONELLA TYPHIMURIUM, Strain/Indicator: TA1537, Metabolic Activation: RAT LIVER S-9, PHENOBARBITAL AND BETA-NAPHTHOFLAVONE, Method: PREINCUBATION)?
**A.** inactive; negative

**Q.** What about the mutagenic call (Test System: AMES SALMONELLA TYPHIMURIUM, Strain/Indicator: TA1537, Metabolic Activation: RAT, LIVER, S-9, AROCLOR 1254 (30%), Method: PREINCUBATION) of the same molecule?
**A.** inactive; negative

**Q.** What about the mutagenic call (Test System: E.COLI, Strain/Indicator: WP2UVRA/PKM101, Metabolic Activation: NONE, Method: PREINCUBATION) of the same molecule?
**A.** inactive; negative

**Q.** And the mutagenic call (Test System: E.COLI, Strain/Indicator: WP2UVRA/PKM101, Metabolic Activation: RAT LIVER S-9, PHENOBARBITAL AND BETA-NAPHTHOFLAVONE, Method: PREINCUBATION)?
**A.** inactive; negative

**Q.** How did the mutagenic call [4] turn out when `CCCCCCCC/C=C\CCCCCCCCN` (tested in a mixture with another compound) was run?
**A.** inactive; negative

**Q.** What about the mutagenic call (Test System: AMES SALMONELLA TYPHIMURIUM, Strain/Indicator: TA98, Metabolic Activation: RAT, LIVER, S-9, AROCLOR 1254, Method: STANDARD PLATE) of the same molecule?
**A.** active; positive

**Q.** And the mutagenic call [5]?
**A.** inactive; negative

**Q.** And the mutagenic call (Test System: AMES SALMONELLA TYPHIMURIUM, Strain/Indicator: TA100, Metabolic Activation: RAT, LIVER, S-9, AROCLOR 1254, Method: STANDARD PLATE)?
**A.** inactive; negative

**Q.** And the mutagenic call [6]?
**A.** inactive; negative

**Q.** And the mutagenic call (Test System: AMES SALMONELLA TYPHIMURIUM, Strain/Indicator: TA1535, Metabolic Activation: RAT, LIVER, S-9, AROCLOR 1254, Method: STANDARD PLATE)?
**A.** inactive; negative

**Q.** What about the mutagenic call [7] of the same molecule?
**A.** inactive; negative

**Q.** What about the mutagenic call (Test System: AMES SALMONELLA TYPHIMURIUM, Strain/Indicator: TA1537, Metabolic Activation: RAT, LIVER, S-9, AROCLOR 1254, Method: STANDARD PLATE) of the same molecule?
**A.** inactive; negative

**Q.** What about the mutagenic call (Test System: AMES SALMONELLA TYPHIMURIUM, Strain/Indicator: TA1538, Metabolic Activation: NONE, Method: STANDARD PLATE) of the same molecule?
**A.** inactive; negative

**Q.** And the mutagenic call (Test System: AMES SALMONELLA TYPHIMURIUM, Strain/Indicator: TA1538, Metabolic Activation: RAT, LIVER, S-9, AROCLOR 1254, Method: STANDARD PLATE)?
**A.** active; positive

**Q.** `FC(F)(Cl)Br` was tested. Which mutagenic call (Test System: AMES SALMONELLA TYPHIMURIUM, Strain/Indicator: TA98, Metabolic Activation: NONE, Method: DESICCATOR) did it give?
**A.** inactive; negative

**Q.** What about the mutagenic call (Test System: AMES SALMONELLA TYPHIMURIUM, Strain/Indicator: TA100, Metabolic Activation: NONE, Method: DESICCATOR) of the same molecule?
**A.** inactive; negative

**Q.** What about the mutagenic call (Test System: AMES SALMONELLA TYPHIMURIUM, Strain/Indicator: TA100, Metabolic Activation: RAT, LIVER, S-9, AROCLOR 1254, Method: DESICCATOR) of the same molecule?
**A.** inactive; negative

**Q.** And the mutagenic call (Test System: AMES SALMONELLA TYPHIMURIUM, Strain/Indicator: TA1535, Metabolic Activation: NONE, Method: DESICCATOR)?
**A.** active; positive

**Q.** What about the mutagenic call (Test System: AMES SALMONELLA TYPHIMURIUM, Strain/Indicator: TA1535, Metabolic Activation: RAT, LIVER, S-9, AROCLOR 1254, Method: DESICCATOR) of the same molecule?
**A.** active; positive

**Q.** What about the mutagenic call (Test System: AMES SALMONELLA TYPHIMURIUM, Strain/Indicator: TA1538, Metabolic Activation: RAT, LIVER, S-9, AROCLOR 1254, Method: DESICCATOR) of the same molecule?
**A.** inactive; negative

**Q.** What about the mutagenic call (Test System: MOUSE LYMPHOMA, Strain/Indicator: L5178Y (TK+/TK-), Metabolic Activation: NONE, Method: DESICCATOR) of the same molecule?
**A.** inactive; negative

**Q.** And the mutagenic call (Test System: MOUSE LYMPHOMA, Strain/Indicator: L5178Y (TK+/TK-), Metabolic Activation: S-9, Method: DESICCATOR)?
**A.** inactive; negative
